# Measured values from ChEMBL document CHEMBL5126585, “Synthesis and evaluation of 1,2,3-dithiazole inhibitors of the nucleocapsid protein of feline immunodeficiency virus (FIV) as a model for HIV infection” (Bioorg Med Chem, 2022).
# How the values were obtained:
# [1] = Cytotoxicity against IL2 independent FL-4 cells assessed as reduction in cell viability measured after 7 days by MTT assay; format: toxicity, cell-based, Felis catus; conditions: cat, time 7 day
# [2] = tested on: Feline immunodeficiency virus; assay: Antiviral activity against Feline immunodeficiency virus infected in IL2 independent FL-4 cells assessed as reduction in viral replication treated for 7 days with daily replacement by qRT-PCR analysis; format: functional, organism-based; conditions: FL-4, 168 h
# [3] = Cytotoxicity against FEA cells assessed as reduction in cell viability incubated for 24 hrs by MTT assay; format: toxicity, cell-based, Felis catus; conditions: cat
# [4] = Therapeutic index, ratio of CC50 for cytotoxicity against IL2 independent FL-4 cells to EC50 for antiviral activity against Feline immunodeficiency virus infected in IL2 independent FL-4 cells; format: toxicity, cell-based; conditions: cat; read-out: Ratio CC50/EC50
# [5] = Cytotoxicity against CRFK cells assessed as reduction in cell viability incubated for 24 hrs by MTT assay; format: toxicity, cell-based, Felis catus; conditions: cat
SMILES,CC50 at 168 h [1],EC50 [2],CC50 at 24 h [3],selectivity ratio [4],CC50 at 24 h [5]
Cc1cc(/N=c2\ssnc2Cl)n(Cc2ccccc2)n1,52 µM,22 µM,30 µM,2.4,33 µM
FC(F)(F)Oc1ccc(/N=c2\ssnc2Cl)cc1Cl,23 µM,23 µM,> 100 µM,1,85 µM
N#Cc1c(Br)cccc1/N=c1\ssnc1Cl,53 µM,15 µM,41 µM,3.5,38 µM
FC(F)(F)Oc1ccc(/N=c2\ssnc2Cl)cc1,> 100 µM,> 100 µM,> 100 µM,,> 100 µM
Clc1nss/c1=N\c1cccc(Br)n1,44 µM,0.48 µM,52 µM,92,38 µM
Clc1nss/c1=N\c1nccs1,4.7 µM,3 µM,8.4 µM,1.6,7.6 µM
CSc1ccc(/N=c2\ssnc2Cl)cc1,51 µM,21 µM,53 µM,2.4,43 µM
Clc1nss/c1=N\c1ccc(Br)cc1,> 100 µM,0.64 µM,40 µM,> 160,> 100 µM
O=[N+]([O-])c1cccnc1/N=c1\ssnc1Cl,2.6 µM,2 µM,6.1 µM,1.3,21 µM
Clc1nss/c1=N\c1ccc(Oc2ccccc2)cc1,> 100 µM,35 µM,> 100 µM,> 2.9,> 100 µM
N#Cc1cccnc1/N=c1\ssnc1Cl,51 µM,0.42 µM,36 µM,122,3.1 µM
O=[N+]([O-])c1ccc(/N=c2\ssnc2Cl)cc1,49 µM,0.29 µM,50 µM,170,31 µM
Clc1nss/c1=N\c1ccccn1,40 µM,0.38 µM,4.6 µM,105,29 µM
Fc1ccc(/N=c2\ssnc2Cl)cc1,> 100 µM,0.98 µM,> 100 µM,> 100,> 100 µM
Clc1nss/c1=N\c1ccc2c(c1)OCO2,49 µM,20 µM,53 µM,2.5,44 µM
COc1cccnc1/N=c1\ssnc1Cl,61 µM,2.9 µM,37 µM,21,37 µM
Clc1nss/c1=N\c1cc(-c2ccccc2)n[nH]1,4.9 µM,0.53 µM,31 µM,9.2,18 µM
